According to US20250073209A1, “COVALENT TARGETING OF RhoA FOR CANCER THERAPY” (The University of Hong Kong, priority 2023, published 2025):

Assays:
RhoA [1] = target: T1, RhoA (Homo sapiens, UniProt P61586); assay: Fluorescence assay of MANT-GTP binding onto RhoA; format: biochemical; conditions: pre-incubation of RhoA with CL16
Protocol: FIGS. 10A and 10B are graphs showing GTP binding assay of RhoA (0.75 μg) with CL16 (FIG. 10A) and GTP-MANT (5.6 μM) (FIG. 10B) in the buffer solution (20 mM Tris, 50 mM NaCl, 10 mM MgCl2, pH 7.5).

RhoA [2] = target: T1, RhoA; assay: Gel-based competitive ABPP (iodoacetamide-rhodamine) on purified RhoA; parameters: purchased ab101594; conditions: competition with IA-Rh, dose-dependent experiments; read-out: IC50 of the competitive binding / in vitro RhoA binding
Protocol: Recombinant human RhoA (0.1 μg; ab101594) was pretreated with cysteine-reactive compounds or DMSO for 1 hour at room temperature, followed by incubation with iodoacetamide-rhodamine (IA-Rh; 1 μM) for 1 hour at room temperature. The reaction was then quenched by boiling in sampling buffer. Samples were subjected to SDS-PAGE to separate proteins bands. In-gel fluorescence intensity was measured with a Chemidoc using setting for Rhodamine. Gel was subsequently stained with silver stain (Pierce) for visualization of protein content and covalent modification. Band intensity was quantified using ImageJ.
CL16 was identified for its strong and specific binding with RhoA in covalent ligand screening experiment by ABPP. ABPP is known as a powerful platform for covalent ligand screening, particularly for the identification of lead compounds targeting new hotspots for therapy. Competitive gel-based activity-based protein profiling (ABPP) experiment was performed on purified RhoA protein for screening its interactions with a library of cysteine-reactive covalent ligands with acrylamide or chloroacetamide warheads. RhoA protein for the first screening and on Rac1 and Cdc42 for the second screening to identify lead compounds with specific binding onto RhoA Cys16. […] The reaction mixture was then resolved by SDS-PAGE and in-gel fluorescence was imaged (FIG. 1A). […]

CRCs = assay: MTT assay on CRC cells; format: cell-based, human; conditions: 48 h
Protocol: HCT116 cells was seeded at 2,500 cells/well; HT29, LOVO and SW620 cells were seeded at 4,000 cells/well; CCD-18Co cells were seeded at 10,000/well; and SW480 cells were seeded at 12,000 cells/well in 96 well plate in triplicates. Cells were treated with a concentration gradient of CL16 for 48 hours. Then, cells were incubated with 10% 3-(4,5-Dimethylthiazol-2-yl)-2,5-diphenyltetrazolium bromide (MTT) solution ([…]) in 37° C. for 4 hours. Cells were then lyzed in 10% SDS in […] HCl. Absorbance of individual well was measured at 570 nm. IC50 values were analyzed by nonlinear best-fit regression using Prism Graphpad 9.
As discussed above, overexpression/hyperactivity of RhoA associated with poor prognosis and aggressive behaviors of CRCs (FIG. 8A). Thus, the anti-cancer and anti-metastatic properties of CL16 in CRCs were explored. First, it was confirmed that genetic knockdown of RhoA by siRNA slowed down colony formation and migration of CRCs by using staining (data not shown) and wound healing assay (FIG. 4A). MTT assay was used to determine cell viability of CRCs and normal colon fibroblast CCD-18Co cells treated with CL16 for 48 h (n=3 different biological replicates/group). A much lower expression level of RhoA in normal colon fibroblast CCD-18Co cells was also determined, as compared to CRCs, by western blotting (data not shown). […]

[3] = tested on: HT29 cells expressing RhoA WT; assay: Wound healing assay on HT29 cells expressing RhoA WT; format: cell-based, human; conditions: 48 h
Protocol: For wound healing assay, HT29 cells were seeded in 90% confluency, a wound was scratched using a P-20 tip the next day. Cell debris was washed with PBS then aspirated. Then, complete DMEM medium with CL16 or Rhosin with corresponding concentration was added to the cells. Wound closure was recorded every 24 hours under light microscope with 10× objective and measurement of wound area was made by ImageJ.
The effects of CL16 in HT29 cells expressing RhoA WT protein and HT29 cells with RhoA C16 Å knock-in by CRISPR-Cas9 were investigated, respectively, to validate the molecular mechanism of RhoA inhibition and anti-cancer properties from CL16. […] HT29 cells expressing RhoA WT or C16 Å protein were incubated with solvent vehicle, CL16 or Rhosin in complete medium for 24 h. The cells were then washed, lysed, subjected to rhotekin pull-down and immunoblotted. […] Wound healing assay on HT29 cells expressing RhoA WT or C16 Å protein were incubated with solvent vehicle, CL16 or Rhosin in complete medium for 48 h (FIGS. 19A and 19B).

T1 sequence (P61586 whole entry): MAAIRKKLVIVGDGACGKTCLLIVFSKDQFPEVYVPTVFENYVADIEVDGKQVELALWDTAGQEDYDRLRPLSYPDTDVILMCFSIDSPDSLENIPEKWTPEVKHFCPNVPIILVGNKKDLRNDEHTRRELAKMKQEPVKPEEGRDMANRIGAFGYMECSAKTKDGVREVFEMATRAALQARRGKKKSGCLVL

IC50 (RhoA [2]): 440 nM
SMILES: O=C(CCl)N1N=C(c2cc3ccccc3o2)CC1c1ccco1 (stereo not shown) [CL16]
MANT-GTP binding onto RhoA (increase in fluorescence intensity) (RhoA [1]): significantly slowed down the increase in fluorescence intensity
cytotoxicity (cell viability) (CRCs): cytotoxicity effects
cell migration [3]: decrease in cell migration
